Measured values from patent US6887896B1, “7-[(7-Alkoxy)-chrom-3-en-6-yl]-heptatrienoic acid and 7-[(3-alkoxy)-5,6-dihydronaphthalen-2-yl]-heptatrienoic acid derivatives having serum glucose reducing activity” (Allergan, Inc., priority 2003, dated 2005).
One block for each molecule: values may come before it.

How the values were obtained:
RXRα [1] = target: T1, RXRα (Homo sapiens, UniProt P19793); assay: ligand binding assay, RXRα; details: for Ki: read-out: RXR Bind Ki α; for Kd: Table 9 (Formula F), read-out: RXR α Kd
T1 construct: expressed in transfected cells
T1 sequence (P19793 1-462): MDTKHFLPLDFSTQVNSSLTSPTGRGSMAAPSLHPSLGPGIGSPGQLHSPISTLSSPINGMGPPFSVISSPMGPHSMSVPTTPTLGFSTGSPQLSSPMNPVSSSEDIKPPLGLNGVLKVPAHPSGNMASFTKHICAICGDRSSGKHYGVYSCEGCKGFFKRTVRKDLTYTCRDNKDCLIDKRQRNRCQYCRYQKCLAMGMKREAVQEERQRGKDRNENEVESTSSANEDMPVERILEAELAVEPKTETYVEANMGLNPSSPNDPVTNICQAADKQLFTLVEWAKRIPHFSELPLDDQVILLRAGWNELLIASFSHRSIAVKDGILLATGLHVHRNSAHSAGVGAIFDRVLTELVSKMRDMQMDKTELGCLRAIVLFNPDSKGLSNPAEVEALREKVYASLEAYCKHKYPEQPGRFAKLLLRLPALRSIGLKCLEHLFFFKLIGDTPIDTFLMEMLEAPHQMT
From the text: (§1) Specifically, one such assay is a chimeric receptor transactivation assay which tests for agonist-like activity in the R RAPE and RAR7 receptor subtypes, and which is based on work published by Feigner, P. L. and Holm, M (1989) Focus, 112 is described in detail in U.S. Pat. No. 5,455,265. The specification of U.S. Pat. No. 5,455,265 is hereby expressly incorporated by reference. A holoreceptor transactivation assay and a ligand binding assay which measure the antagonist/agonist like activity of the compounds of the invention, or their ability to bind to the several retinoid receptor subtypes, respectively, are described in published PCT Application No. WO WO93/11755 (particularly on pages 30-33 and 37-41) published on Jun. 24, 1993, the specification of which is also incorporated herein by reference. A detailed experimental procedure for holoreceptor transactivations has been described by Heyman et al. Cell 68, 397-406, (1992); Allegretto et al. J. Biol. Chem. 268, 26625-26633, and Mangelsdorf et al. The Retinoids: Biology, Chemistry and Medicine, pp 319-349, Raven Press Ltd., New York, which are expressly incorporated herein by reference. The results obtained in this assay are expressed in EC50 numbers, as they are also in the chimeric receptor transactivation assay. The results of the ligand binding assay are expressed in Ki numbers. (See Cheng et al. Biochemical Pharmacology Vol. 22 pp 3099-3108, expressly incorporated herein by reference.)
(§2) Generally speaking, in the tables disclosing the results of transactivation and binding assays the numbers in parentheses indicate efficacy as a percentage compared to the standard compound, (2E,4E,1′S,2′S)-3-methyl-5-[2′-methyl-2′-(5,5,8,8-tetramethyl-5,6,7,8-tetrahydro-naphthalen-2-yl)cyclopropyl]-penta-2,4-dienoic acid and the other numbers indicate the measured EC50 and K; in nanomolar concentration.

RXRβ [2] = target: T2, RXRβ (UniProt P28704); assay: ligand binding assay, RXRβ; details: for Ki: read-out: RXR Bind Ki β; for Kd: Table 9 (Formula F), read-out: RXR β Kd
T2 sequence (P28704 1-520): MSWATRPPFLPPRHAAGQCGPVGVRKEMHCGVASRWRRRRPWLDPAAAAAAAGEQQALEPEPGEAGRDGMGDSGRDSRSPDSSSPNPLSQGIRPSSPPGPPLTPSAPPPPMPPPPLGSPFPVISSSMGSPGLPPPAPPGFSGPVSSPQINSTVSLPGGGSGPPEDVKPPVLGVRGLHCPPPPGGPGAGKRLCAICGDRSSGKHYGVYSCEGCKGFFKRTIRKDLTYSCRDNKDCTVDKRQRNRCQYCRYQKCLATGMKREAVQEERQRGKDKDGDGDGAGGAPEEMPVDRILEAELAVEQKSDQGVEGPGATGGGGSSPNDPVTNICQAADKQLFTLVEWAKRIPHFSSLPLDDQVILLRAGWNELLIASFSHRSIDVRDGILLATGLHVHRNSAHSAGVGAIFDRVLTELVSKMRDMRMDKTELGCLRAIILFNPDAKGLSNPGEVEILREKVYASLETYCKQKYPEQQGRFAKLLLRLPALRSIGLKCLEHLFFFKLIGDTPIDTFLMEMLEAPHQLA
From the text: as §1, §2

RARβ = target: T3, RARβ (Homo sapiens, UniProt P10826); assay: ligand binding assay, RARβ; details: for Ki: read-out: RAR Bind. Ki β; for Kd: Table 9 (Formula F), read-out: RAR β Kd
T3 sequence (P10826 1-455): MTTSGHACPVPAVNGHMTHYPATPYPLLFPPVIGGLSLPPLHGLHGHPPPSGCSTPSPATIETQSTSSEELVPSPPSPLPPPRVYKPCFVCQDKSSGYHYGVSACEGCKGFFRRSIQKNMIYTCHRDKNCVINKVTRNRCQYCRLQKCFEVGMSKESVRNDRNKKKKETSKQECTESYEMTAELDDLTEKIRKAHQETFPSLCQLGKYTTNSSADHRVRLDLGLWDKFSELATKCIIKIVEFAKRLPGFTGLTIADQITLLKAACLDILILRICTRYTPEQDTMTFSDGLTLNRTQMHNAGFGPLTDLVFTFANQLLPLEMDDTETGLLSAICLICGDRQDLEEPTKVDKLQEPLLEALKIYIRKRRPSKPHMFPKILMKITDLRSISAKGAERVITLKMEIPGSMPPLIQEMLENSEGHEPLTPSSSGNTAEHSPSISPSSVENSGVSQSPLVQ
From the text: as §1, §2

RARα = target: T4, RARα (Homo sapiens, UniProt P10276); assay: ligand binding assay, RARα; details: for Ki: read-out: RAR Bind. Ki α; for Kd: Table 9 (Formula F), read-out: RAR α Kd
T4 sequence (P10276 1-462): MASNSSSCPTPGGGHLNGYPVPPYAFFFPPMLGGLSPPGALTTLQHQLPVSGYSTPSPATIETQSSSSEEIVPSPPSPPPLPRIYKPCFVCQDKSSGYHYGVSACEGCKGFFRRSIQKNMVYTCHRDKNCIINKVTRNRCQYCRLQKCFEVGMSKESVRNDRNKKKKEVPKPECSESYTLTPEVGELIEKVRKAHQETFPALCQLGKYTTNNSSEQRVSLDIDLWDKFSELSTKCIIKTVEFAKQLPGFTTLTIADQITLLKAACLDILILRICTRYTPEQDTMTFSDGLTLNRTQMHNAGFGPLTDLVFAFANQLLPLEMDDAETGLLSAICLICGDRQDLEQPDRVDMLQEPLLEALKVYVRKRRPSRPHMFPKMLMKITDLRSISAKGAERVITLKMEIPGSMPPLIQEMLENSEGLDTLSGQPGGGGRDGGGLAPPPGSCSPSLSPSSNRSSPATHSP
From the text: as §1, §2

RXRβ [3] = target: T2, RXRβ; assay: holoreceptor transactivation assay, RXRβ; format: cell-based
From the text: as §1
(§3) Efficacy in a transactivation assay is expressed as a percentage of the maximum potency attained by the compound compared to a standard which, in this case, is the compound named (2E,4E,1′S,2′S)-3-methyl-5-[2′-methyl-2′-(5,5,8,8-tetramethyl-5,6,7,8-tetrahydro-naphthalen-2-yl)-cyclopropyl]-penta-2,4-dienoic acid. This standard compound is described in U.S. Pat. No. 6,114,533.
(§4) The specification of this application for patent is organized in several sections in accordance with structural Formulas A through F each of which discloses a group of preferred compounds within the scope of the invention. Tables that disclose the activity of certain exemplary compounds of the invention in the above-described RXR receptor transactivation and binding assays are found in the corresponding sections. […] The transactivation data pertaining to the activation of RXR receptors were obtained in the holoreceptor assay.
as §2

RARγ = target: T5, RARγ (Homo sapiens, UniProt P13631); assay: ligand binding assay, RARγ; details: for Ki: read-out: RAR Bind. Ki γ; for Kd: Table 9 (Formula F), read-out: RAR γ Kd
T5 sequence (P13631 1-454): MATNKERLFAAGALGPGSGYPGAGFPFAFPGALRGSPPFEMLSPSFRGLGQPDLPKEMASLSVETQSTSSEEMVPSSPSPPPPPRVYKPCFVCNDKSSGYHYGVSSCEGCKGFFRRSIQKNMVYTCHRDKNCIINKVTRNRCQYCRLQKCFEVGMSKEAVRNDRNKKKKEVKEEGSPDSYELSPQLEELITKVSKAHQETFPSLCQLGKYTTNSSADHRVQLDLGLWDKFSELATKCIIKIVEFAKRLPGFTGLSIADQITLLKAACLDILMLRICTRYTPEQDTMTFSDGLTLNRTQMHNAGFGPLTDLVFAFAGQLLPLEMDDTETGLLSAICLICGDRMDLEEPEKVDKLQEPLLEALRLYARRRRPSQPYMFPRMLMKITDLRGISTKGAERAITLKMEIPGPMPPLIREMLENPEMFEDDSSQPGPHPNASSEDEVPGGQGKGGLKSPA
From the text: as §1, §2

RXRα [4] = target: T1, RXRα; assay: holoreceptor transactivation assay, RXRα; format: cell-based
From the text: as §1, §3, §4, §2

ob/ob mice [5] = assay: serum glucose, triglycerides and T4 in ob/ob mice, drug mixed in control diet over 7 days; format: in vivo; details: 2.5 mg/kg per day in diet
ob/ob mice [6] = assay: serum glucose, triglycerides and T4 in diabetic mice, oral gavage in corn oil daily for seven days; format: in vivo; details: for Glucose Day 0 / Triglycerides Day 0: day 0 (pre-treatment)
[7] = 4 mg/kg, corn oil vehicle (second Table 9)
[8] = 5 mg/kg, corn oil vehicle (Table 7)

Compound: CCOc1cc2c(cc1\C(C)=C/C=C/C(C)=C/C(=O)O)C(C(C)C)=CC(C)(C)O2 [Compound 47, 7-(7-Ethoxy-4-isopropyl-2,2-dimethyl-2H-chromen-6-yl)-3-methyl-octa-2E,4E,6Z-trienoic acid]
Ki (RXRα [1]): 15 nM
Ki (RXRβ [2]): 150 nM
Ki (RARβ): 3900 nM
Ki (RARα): > 10000 nM
EC50 (RXRβ [3]; holoreceptor transactivation, read-out: RXR Trans. EC50 β): 288 nM
RXR Trans. efficacy (number in parentheses) β (RXRβ [3]; percentage compared to the standard compound): 6%

Compound: CCOc1cc2c(cc1\C(C)=C(F)/C=C/C(C)=C/C(=O)O)C(C(C)C)=CC(C)(C)O2 [Compound 124, (2E,4E,6E)-7-(7-Ethoxy-4-isopropyl-2,2-dimethyl-2H-Chromen-6-yl)-6-fluoro-3-methyl-octa-2.46-trienoic acid]
Ki (RXRα [1]): 6 nM
Ki (RXRβ [2]): 42 nM
Ki (RARβ): 1000 nM
Ki (RARα): 523 nM
Ki (RARγ): 3.3 µM

Compound: CCCOc1cc2c(cc1\C(C)=C(F)/C=C/C(C)=C/C(=O)O)C(C(C)C)=CC(C)(C)O2 [Compound 125, (2E,4E,6E) 6-Fluoro-7-(4-isopropyl-2,2-dimethyl-7-propoxy-2H-chromen-6-yl)-3-methyl-octa-2,4,6-trienoic acid]
Ki (RXRα [1]): 8 nM
Ki (RXRβ [2]): 73 nM
Ki (RARβ): 3 nM
Ki (RARα): 12 nM
Ki (RARγ): 0.043 µM

Compound: CCCCOc1cc2c(cc1\C(C)=C(F)/C=C/C(C)=C/C(=O)O)C(C(C)C)=CC(C)(C)O2 [Compound 126, (2E,4E,6E)-7-(7-Butoxy-4-isopropyl-2,2-dimethyl-2H-chromen-6-yl)-6-fluoro-3-methyl-octa-2,4,6-trienoic acid]
Ki (RXRα [1]): 8 nM
Ki (RXRβ [2]): 59 nM
Ki (RARβ): 522 nM
Ki (RARα): 860 nM
Ki (RARγ): 3 µM

Compound: CC(/C=C/[C@@H]1C[C@]1(C)c1ccc2c(c1)C(C)(C)CCC2(C)C)=C\C(=O)O [Standard compound, (2E,4E,1′S,2′S)-3-methyl-5-[2′-methyl-2′-(5,5,8,8-tetramethyl-5,6,7,8-tetrahydro-naphthalen-2-yl)-cyclopropyl]-penta-2,4-dienoic acid]
Glucose Day 3, 3 h (ob/ob mice [5]): 107 mg/dL
Glucose Day 6, 3 h (ob/ob mice [5]): 136 mg/dL
T4 Day 7 (ob/ob mice [5]): 0.8 µg/dL
Triglycerides Day 3, 3 h (ob/ob mice [5]): 55 ± 23 mg/dL
Glucose Day 0 (ob/ob mice [5]; day 0 (pre-treatment)): 246 mg/dL
Triglycerides Day 0 (ob/ob mice [5]; day 0 (pre-treatment)): 92 ± 41 mg/dL
Glucose Day 3, 3 h (ob/ob mice [6]; [7]): 312 mg/dL
Glucose Day 6, 3 h (ob/ob mice [6]; [7]): 291 mg/dL
T4 Day 7 (ob/ob mice [6]; [7]): 0.5 µg/dL
Triglycerides Day 3, 3 h (ob/ob mice [6]; [7]): 309 mg/dL
Glucose Day 0 (ob/ob mice [6]; [7]): 544 mg/dL
Triglycerides Day 0 (ob/ob mice [6]; [7]): 261 mg/dL
Glucose Day 3, 3 h (ob/ob mice [6]; [8]): 301 mg/dL
Glucose Day 6, 3 h (ob/ob mice [6]; [8]): 218 mg/dL
T4 Day 7 (ob/ob mice [6]; [8]): 2.7 µg/dL
Triglycerides Day 3, 3 h (ob/ob mice [6]; [8]): 147 mg/dL
Glucose Day 0 (ob/ob mice [6]; [8]): 389 mg/dL
Triglycerides Day 0 (ob/ob mice [6]; [8]): 149 mg/dL
serum thyroxine levels (in words) (ob/ob mice [6]; diabetic mammals): undesirable side effect of reducing serum thyroxine levels

Second part, the molecule after the results:

Kd (RXRα [1]): 2 nM
EC50 (RXRα [4]; holoreceptor transactivation, read-out: RXR Trans. EC50 α): 1 nM
Emax (RXRα [4]; percentage compared to the standard compound, read-out: RXR Trans. efficacy (number in parentheses) α): 5%
Kd (RXRβ [2]): 11 nM
Kd (RARβ): 192 nM
Kd (RARα): 91 nM
Kd (RARγ): 810 nM
Compound: CCCOc1c(\C(C)=C(F)/C=C/C(C)=C/C(=O)O)cc2c(c1Br)C(C)(C)CC=C2C(C)C [Compound A-173, (2E,4E,6E)-7-(4-Bromo-8-isopropyl-5,5-dimethyl-3-propoxy-5,6-dihydro-nahthalen-2-yl)-6-fluoro-3-methyl-octa-2,4,6-trienoic acid]

Kd (RXRα [1]): 9 nM
Kd (RXRβ [2]): 31 nM
Kd (RARβ): 280 nM
Kd (RARα): 458 nM
Kd (RARγ): 866 nM
Compound: CC(/C=C/C(F)=C(/C)c1cc2c(c(Br)c1OC(C)C)C(C)(C)CC=C2C(C)(C)C)=C\C(=O)O [Compound A-175, (2E,4E,6E)-7-(4 Bromo-8-tert-butyl-3-isopropoxy-5,5-dimethyl-5,6 dihydro-naphthalen-2-yl)-6-fluoro-3-methyl-octa-2,4,6-trienoic acid]
